# Measurements: paper PMC9475448, “What a difference a methylene makes: replacing Glu with Asp or Aad in the Lys-urea-Glu pharmacophore of PSMA-targeting radioligands to reduce kidney and salivary gland uptake” (Theranostics, 2022)
# Like-named read-outs stand apart in the source and are kept apart here.
# Experiments:
# PSMA [1] = target: T1, PSMA (Homo sapiens, UniProt Q04609); set-up: method as in PMID 30251544; settings: same assay conditions, reported previously; cited from earlier work
# T1 construct: LNCaP cells (400,000/well) were plated onto a 24-well poly-D-lysine coated plate for 48 h; endogenous in cells; host or cells: LNCaP prostate cancer cells
# [2] = tested on: mouse kidneys and salivary glands; set-up: method as in PMID 32859704; settings: 1h post-injection; cited from earlier work
# [3] = tested on: mouse kidneys and salivary glands; experiment: Biodistribution of previously reported [68Ga]Ga-HTK03041 in mice; type: in vivo; settings: 1h post-injection, unreported data of the earlier study
# mouse model = settings: up to 657 mg/kg; cited from earlier work
# PSMA [4] = target: T1, PSMA; set-up: method as in PMID 30097503; settings: read-out: Ki (PSMA inhibitor); cited from earlier work
# parotid gland = settings: in vivo; cited from earlier work
# T1 sequence (Q04609 whole entry): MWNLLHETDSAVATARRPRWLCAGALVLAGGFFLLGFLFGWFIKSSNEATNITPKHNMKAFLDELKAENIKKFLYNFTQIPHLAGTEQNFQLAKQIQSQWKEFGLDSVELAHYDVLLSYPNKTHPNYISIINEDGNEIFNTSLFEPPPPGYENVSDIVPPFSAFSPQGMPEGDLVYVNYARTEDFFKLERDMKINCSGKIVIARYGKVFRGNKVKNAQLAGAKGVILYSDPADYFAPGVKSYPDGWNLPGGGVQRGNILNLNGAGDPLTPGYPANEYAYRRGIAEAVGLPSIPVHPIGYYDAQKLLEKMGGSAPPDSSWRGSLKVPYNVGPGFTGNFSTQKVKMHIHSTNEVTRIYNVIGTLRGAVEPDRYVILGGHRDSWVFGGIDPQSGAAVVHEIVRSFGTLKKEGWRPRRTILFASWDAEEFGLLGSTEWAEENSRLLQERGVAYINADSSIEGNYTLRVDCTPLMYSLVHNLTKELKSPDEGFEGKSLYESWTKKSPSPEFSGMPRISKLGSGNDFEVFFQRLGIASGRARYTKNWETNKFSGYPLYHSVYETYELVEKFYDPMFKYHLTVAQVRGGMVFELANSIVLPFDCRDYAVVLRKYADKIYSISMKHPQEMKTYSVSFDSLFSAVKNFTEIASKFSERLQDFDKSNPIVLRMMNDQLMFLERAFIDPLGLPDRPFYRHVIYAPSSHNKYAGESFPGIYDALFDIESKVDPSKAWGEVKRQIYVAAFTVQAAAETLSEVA
molecule,measurement,setting,value
O=C([O-])CN1CCN(CC(=O)[O-])CCN(CC(=O)NCC2CCC(C(=O)N[C@@H](Cc3ccc4ccccc4c3)C(=O)NCCCC[C@H](NC(=O)N[C@@H](CCC(=O)O)C(=O)O)C(=O)O)CC2)CCN(CC(=O)[O-])CC1.[Lu+3] (stereo partly drawn) [Lu-PSMA-617],Ki,PSMA [1],0.24 ± 0.06 nM
O=C([O-])CN1CCN(CC(=O)[O-])CCN(CC(=O)NCC2CCC(C(=O)NC(Cc3c4ccccc4cc4ccccc34)C(=O)NCCCCC(NC(=O)NC(CCC(=O)O)C(=O)O)C(=O)O)CC2)CCN(CC(=O)[O-])CC1.[68Ga+3] (stereo not drawn) [[^68Ga]Ga-HTK03041],Kidney uptake,[2],170±26.4 %IA/g
same,Salivary gland uptake,[3],4.99±0.88 %IA/g
N[C@@H](CCC(=O)O)C(=O)[O-].[Na+] [monosodium glutamate],Effect of pretreatment on [68Ga]Ga-PSMA-11 uptake,mouse model,reduced uptake of [^68Ga]Ga-PSMA-11 in salivary glands and kidneys but had no effect on tumor uptake
same,Ki,PSMA [4],900 nM
botulinum toxin A,Reduction in SUVmean of the treated parotid gland in [68Ga]Ga-PSMA-11 scan vs baseline,parotid gland,up to 64%
